From PubChem BioAssay (NCI) come the findings set out here.

Some test systems named below: SF-295 CNS; A549 NSCLC; HCT-15 colon; KM12 colon; TK-10 renal; SF-539 CNS; MDA-MB-435; SF-268 CNS; SK-MEL-28 melanoma; SK-MEL-5 melanoma.
Experiment in all cases: DTP human tumour cell line panel, 48 h

Structures are written as SMILES.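 In this assay, cells in 96-well plates receive the compound at five concentrations for 48 hours. Endpoints are linearly interpolated between the surrounding concentrations. Abbreviation: GI50, concentration required for 50% inhibition of growth. TGI marks complete inhibition of growth.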

The TGI is the concentration at which net growth stops. For `C[C@]12C[C@H](O)[C@H]3[C@@H](CCC4=CC(=O)CC[C@@]43C)[C@@H]1CC[C@@H]2c1csc(-c2ccccc2)n1`, the TGI with SF-295 CNS, with A549 NSCLC, in the assay with HCT-15 colon, in the assay with KM12 colon, in the assay on TK-10 renal and in the assay with SF-539 CNS was > 100 µM each time. Further, the TGI with MDA-MB-435, in the assay with SF-268 CNS and with SK-MEL-28 melanoma was > 100 µM in each case.

For orientation: GI50 means the concentration giving 50% growth inhibition. Turning to `CO/N=C(\COc1ccc2oc(-c3ccccc3)cc(=O)c2c1)c1ccc(F)cc1`, the GI50 in the assay on SF-295 CNS is > 100 µM; with A549 NSCLC it was 20 µM; in the assay on HCT-15 colon it was 40.2 µM; with KM12 colon it was 46.9 µM; in the assay with TK-10 renal, 22.9 µM; with SF-539 CNS, 20.9 µM. The GI50 in the assay on MDA-MB-435 is > 100 µM; with SK-MEL-5 melanoma it was 31.3 µM; in the assay with SK-MEL-28 melanoma it was 48.2 µM. For the same molecule, the TGI in the assay with SF-295 CNS was > 100 µM; with A549 NSCLC, 48.7 µM; in the assay with HCT-15 colon it was > 100 µM; in the assay on KM12 colon, > 100 µM; in the assay with TK-10 renal it was 53 µM; in the assay with SF-539 CNS it was 42.9 µM. The concentration for total growth inhibition (TGI) in the assay with MDA-MB-435 is > 100 µM; with SK-MEL-5 melanoma, 93.5 µM; in the assay on SK-MEL-28 melanoma it was > 100 µM.

Regarding `COC(=O)N[C@H]1CCc2c(Cl)c(OC)c(OC)c(OC)c2-c2ccc(SC)c(=O)cc21`, the GI50 in the assay on A549 NSCLC is < 0.01 µM; in the assay with HCT-15 colon, < 0.01 µM; in the assay on KM12 colon, < 0.01 µM; with TK-10 renal it was 15.8 µM; with SF-539 CNS it was < 0.01 µM; in the assay with MDA-MB-435, < 0.01 µM. Also, the concentration for 50% growth inhibition (GI50) in the assay on SK-MEL-5 melanoma is < 0.01 µM; in the assay with SF-268 CNS it was < 0.01 µM; with SK-MEL-28 melanoma, 8.52 µM. Moreover, the TGI in the assay on A549 NSCLC is > 100 µM; in the assay with HCT-15 colon, > 43.9 µM; with KM12 colon, 18.8 µM; in the assay on TK-10 renal it was > 100 µM; in the assay with SF-539 CNS, < 0.01 µM; in the assay on MDA-MB-435, < 0.01 µM. In addition, the figures for the TGI in the assay with SK-MEL-5 melanoma, in the assay on SF-268 CNS and in the assay on SK-MEL-28 melanoma were < 0.0127 µM, > 100 µM and 46 µM, respectively.

Regarding `CCOC(=O)/C=C/c1cccc(F)c1`, the TGI in the assay with A549 NSCLC, with HCT-15 colon, with KM12 colon, with TK-10 renal, with SF-539 CNS and with MDA-MB-435 was > 100 µM throughout. The TGI in the assay on SF-268 CNS and with SK-MEL-28 melanoma was > 100 µM throughout.

For `CC[C@]12C=CCN3CCC4(c5cc([C@@]6(C(=O)OC)CC7CN(CCc8c6[nH]c6ccccc86)CC6CCCCC67)c(OC)cc5N(C)C4[C@](O)(C(=O)OC)C1OC(C)=O)[C@@H]32` (stereo not given in full), the TGI in the assay with SF-295 CNS was 15.1 µM; with A549 NSCLC, 12.6 µM; in the assay with HCT-15 colon it was 20.1 µM; in the assay with KM12 colon it was 15.7 µM; in the assay on TK-10 renal, 18.7 µM; in the assay with SF-539 CNS, < 0.01 µM. In addition, the TGI in the assay on MDA-MB-435 is < 0.01 µM; with SK-MEL-5 melanoma, 1.53 µM; in the assay on SF-268 CNS, 1.47 µM. In addition, the GI50 in the assay with HCT-15 colon was 0.693 µM.

`C[CH2][Sn]([CH2]C)([O]C(=O)c1ccc(F)cc1)[O]C(=O)c1ccc(F)cc1`: the GI50 was 44.3 µM with SF-295 CNS; > 100 µM in the assay with A549 NSCLC; 25.7 µM in the assay with HCT-15 colon; > 100 µM in the assay on KM12 colon; 17.8 µM in the assay with TK-10 renal; 16.4 µM with SF-539 CNS. The results for the GI50 in the assay on SK-MEL-5 melanoma, in the assay with SF-268 CNS and in the assay with SK-MEL-28 melanoma were 39.6 µM, 17.9 µM and 18.6 µM, respectively. In addition, the TGI with SF-295 CNS was > 65.7 µM; in the assay on A549 NSCLC, > 100 µM; in the assay with HCT-15 colon it was > 63 µM; in the assay on KM12 colon, > 100 µM; with TK-10 renal it was 32.4 µM; in the assay with SF-539 CNS it was 30.1 µM. Besides, the TGI in the assay with SK-MEL-5 melanoma is > 100 µM; with SF-268 CNS, 33.5 µM; in the assay on SK-MEL-28 melanoma, 34.8 µM.

On to `NC(=O)c1ccc(Cl)c([N+](=O)[O-])c1`, for which the TGI in the assay on SF-295 CNS, in the assay on A549 NSCLC, in the assay with HCT-15 colon, with KM12 colon, with TK-10 renal and in the assay with SF-539 CNS was > 100 µM each time. Also, the TGI in the assay on SK-MEL-5 melanoma, with SF-268 CNS and with SK-MEL-28 melanoma was > 100 µM in each case.

On to `COC(=O)CC[C@]12C[C@]13CC[C@]1(C)C4C(C)C[C@]5(CC(C)C(=O)O5)OC4CC1(C)C3CCC2C(C)(C)O` (stereo not given in full), for which the TGI with SF-295 CNS, in the assay on A549 NSCLC, in the assay on HCT-15 colon, in the assay with KM12 colon, in the assay on TK-10 renal and in the assay with SF-539 CNS was > 100 µM throughout. The TGI in the assay with SK-MEL-5 melanoma, in the assay on SF-268 CNS and in the assay with SK-MEL-28 melanoma was > 100 µM each time.

With `CCC(CO)Nc1nc2c(c(=O)n(C)c(=O)n2C)n1CCO` (stereo not given), the TGI in the assay on SF-295 CNS, in the assay with A549 NSCLC, in the assay on HCT-15 colon, with KM12 colon, in the assay with TK-10 renal and with SF-539 CNS was > 100 µM throughout. Moreover, the TGI with SK-MEL-5 melanoma, with SF-268 CNS and in the assay with SK-MEL-28 melanoma was > 100 µM throughout.

With `CCN(Cc1c(F)cccc1Cl)c1ccc(CO)c(Cl)c1`, the GI50 in the assay with SF-295 CNS is 0.178 µM; in the assay with A549 NSCLC, 0.573 µM; with HCT-15 colon, 10 µM; with KM12 colon it was 11.8 µM; with SF-539 CNS it was 15.5 µM; in the assay on MDA-MB-435 it was 10.9 µM. In addition, the GI50 with SK-MEL-5 melanoma was 0.5 µM; with SF-268 CNS it was 16.4 µM; with SK-MEL-28 melanoma it was 13.1 µM. Also, the TGI was determined as 15.7 µM in the assay with SF-295 CNS; 16.6 µM in the assay on A549 NSCLC; 24.7 µM in the assay with HCT-15 colon; 25.8 µM in the assay with KM12 colon; 29.8 µM in the assay on SF-539 CNS; 24.3 µM in the assay on MDA-MB-435. Also, the values for the TGI in the assay with SK-MEL-5 melanoma, in the assay with SF-268 CNS and in the assay with SK-MEL-28 melanoma were 20.1 µM, 31.4 µM and 27.4 µM, respectively.

For `O=C1CSC(c2c[nH]c3ccccc23)N1c1ccc(Cl)cc1Cl` (stereo not given), the TGI with SF-295 CNS, with A549 NSCLC, in the assay with HCT-15 colon, in the assay with KM12 colon, in the assay on TK-10 renal and with SF-539 CNS was > 100 µM throughout. For the same molecule, the total growth inhibition concentration (TGI) in the assay with SK-MEL-5 melanoma, in the assay on SF-268 CNS and in the assay with SK-MEL-28 melanoma was > 100 µM each time.
